Values quoted from earlier work as cited in patent publication US20180000940A1, “INJECTABLE FORMULATIONS OF PARACETAMOL” (TROIKAA PHARMACEUTICALS LIMITED, priority 2014, published 2018).

Conditions: solution no 20: 30% propylene-glycol, 40% polyethylene-glycol 400, 30% water; 20° C.

- Amount of paracetamol that can be dissolved: about 200 mg/ml
SMILES: CC(=O)Nc1ccc(O)cc1 [paracetamol, Paracetamol]
